Measured values taken from the NIST ThermoML archive (doi:10.1016/j.jct.2011.10.023).

Details: Liquid, Vibrating tube method

CCCCCO [pentan-1-ol]
mass density [kg/m3]
Details | 278.15 K | 288.15 K | 298.15 K | 308.15 K | 318.15 K | 328.15 K | 338.15 K | 348.15 K | 358.15 K
100 kPa | 825.2 | 818 | 810.7 | 803.3 | 795.8 | 788.2 | 780.3 | 772.3 | 763.8
1000 kPa | 825.8 | 818.7 | 811.3 | 804 | 796.6 | 789 | 781.2 | 773.1 | 764.8
5000 kPa | 828.5 | 821.5 | 814.2 | 807 | 799.8 | 792.3 | 784.8 | 776.9 | 768.8
10000 kPa | 831.6 | 824.8 | 817.7 | 810.7 | 803.6 | 796.3 | 788.9 | 781.2 | 773.5
15000 kPa | 834.7 | 828 | 821 | 814 | 807.2 | 800.1 | 792.9 | 785.5 | 777.9
20000 kPa | 837.6 | 831.1 | 824.3 | 817.5 | 810.7 | 803.8 | 796.7 | 789.5 | 782.1
25000 kPa | 840.4 | 834 | 827.3 | 820.7 | 814 | 807.2 | 800.3 | 793.3 | 786.1
30000 kPa | 843.2 | 836.9 | 830.3 | 823.8 | 817.3 | 810.6 | 803.8 | 796.9 | 789.9
35000 kPa | 845.9 | 839.7 | 833.2 | 826.8 | 820.4 | 813.8 | 807.2 | 800.4 | 793.6
40000 kPa | 848.6 | 842.4 | 836 | 829.7 | 823.4 | 817 | 810.5 | 803.8 | 797.1
45000 kPa | 851.1 | 845 | 838.7 | 832.5 | 826.3 | 820 | 813.6 | 807.1 | 800.5
50000 kPa | 853.6 | 847.6 | 841.4 | 835.3 | 829.1 | 822.9 | 816.6 | 810.3 | 803.8
55000 kPa | 856.1 | 850.1 | 844 | 838 | 831.9 | 825.8 | 819.6 | 813.3 | 807
60000 kPa | 858.4 | 852.5 | 846.4 | 840.4 | 834.6 | 828.4 | 822.5 | 816.2 | 810

CCCCCCCCCCO [decan-1-ol]
mass density [kg/m3]
Details | 288.15 K | 298.15 K | 308.15 K | 318.15 K | 328.15 K | 338.15 K | 348.15 K | 358.15 K
100 kPa | 832.3 | 825.5 | 818.7 | 811.9 | 805 | 798 | 790.9 | 783.6
1000 kPa | 832.8 | 826 | 819.3 | 812.5 | 805.7 | 798.7 | 791.6 | 784.3
5000 kPa | 835.2 | 828.5 | 821.9 | 815.3 | 808.5 | 801.7 | 794.8 | 787.6
10000 kPa | 838 | 831.5 | 825 | 818.5 | 811.9 | 805.2 | 798.5 | 791.6
15000 kPa | 840.8 | 834.4 | 828 | 821.7 | 815.2 | 808.7 | 802 | 795.3
20000 kPa | 843.5 | 837.2 | 830.9 | 824.7 | 818.3 | 812 | 805.5 | 798.9
25000 kPa | 846.1 | 839.8 | 833.7 | 827.6 | 821.4 | 815.1 | 808.8 | 802.3
30000 kPa | 848.6 | 842.5 | 836.4 | 830.4 | 824.3 | 818.1 | 811.9 | 805.6
35000 kPa | 851.1 | 845.1 | 839.1 | 833.2 | 827.1 | 821.1 | 815 | 808.8
40000 kPa | 853.5 | 847.6 | 841.7 | 835.8 | 829.9 | 824 | 817.9 | 811.9
45000 kPa | 855.9 | 850 | 844.2 | 838.5 | 832.6 | 826.7 | 820.8 | 814.8
50000 kPa | 858.2 | 852.4 | 846.6 | 841 | 835.2 | 829.4 | 823.6 | 817.7
55000 kPa | 860.4 | 854.7 | 849 | 843.4 | 837.7 | 832.1 | 826.4 | 820.5
60000 kPa | 862.7 | 856.8 | 851.2 | 845.7 | 840.2 | 834.5 | 829 | 822.9

CCCCCCCCO [octan-1-ol]
mass density [kg/m3]
Details | 278.15 K | 288.15 K | 298.15 K | 308.15 K | 318.15 K | 328.15 K | 338.15 K | 348.15 K | 358.15 K
100 kPa | 835.2 | 828.4 | 821.4 | 814.5 | 807.5 | 800.4 | 793.2 | 785.6 | 778
1000 kPa | 835.7 | 829 | 822 | 815.1 | 808.1 | 801.1 | 793.9 | 786.4 | 778.8
5000 kPa | 838 | 831.5 | 824.6 | 817.8 | 811 | 804.1 | 796.9 | 789.8 | 782.3
10000 kPa | 841 | 834.4 | 827.7 | 821.1 | 814.4 | 807.7 | 800.8 | 793.6 | 786.4
15000 kPa | 843.7 | 837.3 | 830.7 | 824.2 | 817.7 | 811.1 | 804.4 | 797.4 | 790.4
20000 kPa | 846.4 | 840.1 | 833.6 | 827.2 | 820.8 | 814.4 | 807.8 | 801 | 794.1
25000 kPa | 849 | 842.8 | 836.4 | 830.1 | 823.8 | 817.5 | 811.1 | 804.5 | 797.7
30000 kPa | 851.5 | 845.5 | 839.1 | 833 | 826.8 | 820.5 | 814.2 | 807.8 | 801.1
35000 kPa | 854 | 848 | 841.8 | 835.7 | 829.6 | 823.5 | 817.3 | 810.9 | 804.5
40000 kPa | 856.4 | 850.5 | 844.4 | 838.4 | 832.4 | 826.4 | 820.3 | 814 | 807.7
45000 kPa | 858.8 | 852.9 | 846.9 | 841 | 835.1 | 829.1 | 823.1 | 817 | 810.8
50000 kPa | 861.1 | 855.3 | 849.4 | 843.5 | 837.7 | 831.9 | 825.9 | 819.9 | 813.6
55000 kPa | 863.4 | 857.6 | 851.7 | 846 | 840.3 | 834.5 | 828.7 | 822.7 | 816.7
60000 kPa | 865.5 | 859.8 | 853.9 | 848.2 | 842.6 | 836.9 | 831.2 | 825.5 | 819.6
